Results reported in PubChem BioAssay (NCI).
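Following 48 hours of exposure in 96-well plates, responses at five concentrations were used to interpolate endpoints linearly. TGI denotes the concentration required for complete inhibition of growth.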

Experiments:
Assay in all cases: NCI anticancer screen, dose series, 48 h
KM12 colon = tested on: KM12 colon
T-47D breast = tested on: T-47D breast
OVCAR-5 ovarian = tested on: OVCAR-5 ovarian
IGROV1 ovarian = tested on: IGROV1 ovarian
HCT-15 colon = tested on: HCT-15 colon
SN12C renal = tested on: SN12C renal
SNB-75 CNS = tested on: SNB-75 CNS
MDA-MB-435 = tested on: MDA-MB-435
U251 CNS = tested on: U251 CNS
NCI-H460 lung = tested on: NCI-H460 lung
CCRF-CEM leukemia = tested on: CCRF-CEM leukemia
SK-MEL-5 melanoma = tested on: SK-MEL-5 melanoma
A549 NSCLC = tested on: A549 NSCLC
LOX IMVI melanoma = tested on: LOX IMVI melanoma
SF-268 CNS = tested on: SF-268 CNS
COLO 205 colon = tested on: COLO 205 colon
HOP-62 NSCLC = tested on: HOP-62 NSCLC
SNB-19 CNS = tested on: SNB-19 CNS
RXF 393 renal = tested on: RXF 393 renal
OVCAR-8 ovarian = tested on: OVCAR-8 ovarian
NCI-H23 lung = tested on: NCI-H23 lung
MOLT-4 leukemia = tested on: MOLT-4 leukemia
HCT-116 colon = tested on: HCT-116 colon
MDA-MB-231 breast = tested on: MDA-MB-231 breast
UO-31 renal = tested on: UO-31 renal
NCI-H226 lung = tested on: NCI-H226 lung
SW-620 colon = tested on: SW-620 colon
BT-549 breast = tested on: BT-549 breast
HCC-2998 colon = tested on: HCC-2998 colon
UACC-257 melanoma = tested on: UACC-257 melanoma
MDA-N = tested on: MDA-N
MALME-3M melanoma = tested on: MALME-3M melanoma
PC-3 prostate = tested on: PC-3 prostate
SK-MEL-28 melanoma = tested on: SK-MEL-28 melanoma
HL-60(TB) leukemia = tested on: HL-60(TB) leukemia
NCI-H522 lung = tested on: NCI-H522 lung
HOP-92 NSCLC = tested on: HOP-92 NSCLC
A498 renal = tested on: A498 renal
786-0 renal = tested on: 786-0 renal
EKVX NSCLC = tested on: EKVX NSCLC
MCF7 breast = tested on: MCF7 breast
HT29 colon = tested on: HT29 colon
SK-OV-3 ovarian = tested on: SK-OV-3 ovarian
TK-10 renal = tested on: TK-10 renal
ACHN renal = tested on: ACHN renal
SF-295 CNS = tested on: SF-295 CNS
UACC-62 melanoma = tested on: UACC-62 melanoma
DU-145 prostate = tested on: DU-145 prostate
SF-539 CNS = tested on: SF-539 CNS
HS 578T breast = tested on: HS 578T breast
SK-MEL-2 melanoma = tested on: SK-MEL-2 melanoma
CAKI-1 renal = tested on: CAKI-1 renal
M14 melanoma = tested on: M14 melanoma
OVCAR-4 ovarian = tested on: OVCAR-4 ovarian

CC1=C(C)C(=O)C(C2=C(C3=CC(=O)C(C)=C(C)C3=O)C(=O)C(C)=C(C)C2=O)=CC1=O
TGI (KM12 colon): 30.4 µM | TGI (T-47D breast): 7.32 µM | TGI (OVCAR-5 ovarian): > 34.6 µM | TGI (IGROV1 ovarian): 31.2 µM | TGI (HCT-15 colon): > 61.8 µM | TGI (SN12C renal): 47.9 µM | TGI (SNB-75 CNS): 33.3 µM | TGI (MDA-MB-435): 14.2 µM | TGI (U251 CNS): > 38.2 µM | TGI (NCI-H460 lung): 29.6 µM | TGI (CCRF-CEM leukemia): > 100 µM | TGI (SK-MEL-5 melanoma): 5.85 µM | TGI (A549 NSCLC): > 84.4 µM | TGI (LOX IMVI melanoma): > 21.3 µM | TGI (SF-268 CNS): 34.5 µM | TGI (COLO 205 colon): 8.07 µM | TGI (HOP-62 NSCLC): 36.5 µM | TGI (SNB-19 CNS): > 100 µM | TGI (RXF 393 renal): 5.16 µM | TGI (OVCAR-8 ovarian): > 47.1 µM | TGI (NCI-H23 lung): 43.1 µM | TGI (MOLT-4 leukemia): > 100 µM | TGI (HCT-116 colon): > 100 µM | TGI (MDA-MB-231 breast): 5.29 µM | TGI (UO-31 renal): 34.1 µM | TGI (NCI-H226 lung): 31.8 µM | TGI (SW-620 colon): 13 µM | TGI (BT-549 breast): 21.6 µM | TGI (HCC-2998 colon): 28.6 µM | TGI (UACC-257 melanoma): 28.4 µM | TGI (MDA-N): > 20.2 µM | TGI (MALME-3M melanoma): 11.4 µM | TGI (PC-3 prostate): 16 µM | TGI (SK-MEL-28 melanoma): 14 µM | TGI (HL-60(TB) leukemia): > 100 µM | TGI (NCI-H522 lung): 5.21 µM | TGI (HOP-92 NSCLC): > 51.2 µM | TGI (A498 renal): 21.5 µM | TGI (786-0 renal): > 49.4 µM | TGI (EKVX NSCLC): > 70 µM | TGI (MCF7 breast): > 21.1 µM | TGI (HT29 colon): 9.02 µM | TGI (SK-OV-3 ovarian): 32.6 µM | TGI (TK-10 renal): 27 µM | TGI (ACHN renal): 18.3 µM | TGI (SF-295 CNS): 33.8 µM | TGI (UACC-62 melanoma): 25.9 µM | TGI (DU-145 prostate): 30 µM | TGI (SF-539 CNS): 4.99 µM | TGI (HS 578T breast): > 79.7 µM | TGI (SK-MEL-2 melanoma): 31 µM | TGI (CAKI-1 renal): 8.87 µM | TGI (M14 melanoma): > 40.7 µM | TGI (OVCAR-4 ovarian): 4.57 µM
